What follows are compounds tested against T1, human MC5R (Homo sapiens, UniProt P33032) (assay: Human MC5R radioligand binding assay ([125I] NDP-MSH displacement, hMC5R membranes)). Settings: not given.
T1 construct: purchased Perkin Elmer RBXMC5M400UA
Experimental: After incubation for 10 mins the phosphate buffer containing the iodine was added to NDP-MSH (10 ul at 1 mg/mL) in a separate eppendorf tube. This was incubated for a further 10 mins.
Resuspended membranes were kept on ice until they were added to the wells of the plate.
Assays were performed in 96 well polypropylene plates. […] This was incubated for 1 hr at 37 °C. Non-specific binding was determined with […] NDP-MSH. Plates were filtered using a Tomtec cell harvester with GF/A filters (Wallac) (presoaked in 0.6% polyethylenimine) and washed three times with 1.0 mL ice-cold wash buffer (the above incubation buffer without 1,10-phenanthroline and Complete™ protease inhibitor tablet). The filters were dried in a 37 °C oven, placed in a sample bag and 5 mL Betaplatescint (Wallac) was added. Prepared filters were counted in cassettes in a Microbeta Trilux (Wallac) for 1 min. […] Data analysis was performed using GraphPad Prism 4, employing competition binding with a single site model and a fixed Hill coefficient. The following equation was used: Y = Bottom + (Top-Bottom)/1/10^(X-logEC50), where X = log(concentration) and Y = binding to fit the data.

T1 sequence (P33032 whole entry): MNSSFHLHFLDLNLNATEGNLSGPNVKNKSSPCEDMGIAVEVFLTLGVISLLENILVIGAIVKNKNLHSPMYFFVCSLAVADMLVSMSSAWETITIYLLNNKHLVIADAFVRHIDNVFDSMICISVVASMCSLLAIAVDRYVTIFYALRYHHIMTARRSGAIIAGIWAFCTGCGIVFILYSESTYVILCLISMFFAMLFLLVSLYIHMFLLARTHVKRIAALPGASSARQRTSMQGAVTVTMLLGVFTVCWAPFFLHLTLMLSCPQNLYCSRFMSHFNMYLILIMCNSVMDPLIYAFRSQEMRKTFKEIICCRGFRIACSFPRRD

Row | Compound | IC50 [nM]
1 | CCC(CN1CCC(CNC(=O)c2ccc3cc(Cl)ccc3c2)N[C@@H](C2CCN(C(C)C)CC2)C1=O)c1ccccc1 (mixture of isomers) [Compound 564, (S)-6-chloro-N-((3-(1-isopropylpiperidin-4-yl)-2-oxo-1-(2-phenylbutyl)-1,4-diazepan-5-yl)methyl)-2-naphthamide] | < 100

Same assay, conditions: hMC5R assay as in Example 102; compounds tested as trifluoroacetate or hydrochloride salts, or as free base

Row | Compound | IC50 [nM]
2 | N=C(N)NCCC[C@@H]1N[C@H](CNC(=O)Cc2ccc3ccccc3c2)CCN(CC(c2ccccc2)c2ccccc2)C1=O [Compound 110, N-(((3S,5S)-1-(2,2-diphenylethyl)-3-(3-guanidinopropyl)-2-oxo-1,4-diazepan-5-yl)methyl)-2-(naphthalen-2-yl)acetamide] | < 1000
3 | O=C(/C=C/c1ccc(Cl)cc1)NC[C@@H]1CCN(CC(c2ccccc2)c2ccccc2)C(=O)[C@H](Cc2ccccc2)N1 [Compound 324, (E)-N-(((3S,5S)-3-benzyl-1-(2,2-diphenylethyl)-2-oxo-1,4-diazepan-5-yl)methyl)-3-(4-chlorophenyl)acrylamide] | < 1000
4 | NCCC[C@@H]1N[C@H](CNC(=O)c2cc(-c3ccccc3)n[nH]2)CCN(CC(c2ccccc2)c2ccccc2)C1=O [Compound 256, N-(((3S,5S)-3-(3-aminopropyl)-1-(2,2-diphenylethyl)-2-oxo-1,4-diazepan-5-yl)methyl)-3-phenyl-1H-pyrazole-5-carboxamide] | < 1000
5 | CCC(CC)CN1CC[C@@H](CNC(=O)c2ccc(Cl)c(F)c2)N[C@@H](CCN)C1=O [Compound 351, N-(((3S,5S)-3-(2-aminoethyl)-1-(2-ethylbutyl)-2-oxo-1,4-diazepan-5-yl)methyl)-4-chloro-3-fluorobenzamide] | < 10000
6 | Cc1ccc(/C=C/C(=O)NC[C@@H]2CCN(CC(c3ccccc3)c3ccccc3)C(=O)[C@H](CCCN)N2)s1 [Compound 255, (E)-N-(((3S,5S)-3-(3-aminopropyl)-1-(2,2-diphenylethyl)-2-oxo-1,4-diazepan-5-yl)methyl)-3-(5-methylthiophen-2-yl)acrylamide] | < 1000
7 | N=C(N)NCCC[C@@H]1N[C@H](CNC(=O)/C=C/c2ccc(Cl)cc2Cl)CCN(CC(c2ccccc2)c2ccccc2)C1=O [Compound 160, (E)-3-(2,4-dichlorophenyl)-N-(((3S,5S)-1-(2,2-diphenylethyl)-3-(3-guanidino-propyl)-2-oxo-1,4-diazepan-5-yl)methyl)acrylamide] | < 100
8 | N=C(N)NCCC[C@@H]1N[C@H](CNC(=O)c2cc3ccccc3[nH]2)CCN(CC(c2ccccc2)c2ccccc2)C1=O [Compound 142, N-(((3S,5S)-1-(2,2-diphenylethyl)-3-(3-guanidinopropyl)-2-oxo-1,4-diazepan-5-yl)methyl)-1H-indole-2-carboxamide] | < 100
9 | N=C(N)NCCC[C@@H]1N[C@H](CNC(=O)/C=C/c2ccc(O)cc2)CCN(CC(c2ccccc2)c2ccccc2)C1=O [Compound 169, (E)-N-(((3S,5S)-1-(2,2-diphenylethyl)-3-(3-guanidinopropyl)-2-oxo-1,4-diazepan-5-yl)methyl)-3-(4-hydroxyphenyl)acrylamide] | < 1000
10 | CN(C[C@@H]1CCN(CC(c2ccccc2)c2ccccc2)C(=O)[C@H](CCCN)N1)C(=O)c1ccc2cc(Br)ccc2c1 [Compound 60, N-(((3S,5S)-3-(3-aminopropyl)-1-(2,2-diphenylethyl)-2-oxo-1,4-diazepan-5-yl)methyl)-6-bromo-N-methyl-2-naphthamide] | < 10000
11 | N=C(N)NCCC[C@@H]1N[C@H](CNC(=O)/C=C/c2cccc(Cl)c2)CCN(CC(c2ccccc2)c2ccccc2)C1=O [Compound 177, (E)-3-(3-chlorophenyl)-N-(((3S,5S)-1-(2,2-diphenylethyl)-3-(3-guanidinopropyl)-2-oxo-1,4-diazepan-5-yl)methyl)acrylamide] | < 100
12 | CCN(CC)CC[C@@H]1N[C@H](CNC(=O)/C=C/c2ccc(Cl)cc2)CCN(CC(c2ccccc2)c2ccccc2)C1=O [Compound 378, (E)-3-(4-chlorophenyl)-N-(((3S,5S)-3-(2-(diethylamino)ethyl)-1-(2,2-diphenylethyl)-2-oxo-1,4-diazepan-5-yl)methyl)acrylamide] | < 100
13 | CCC(CC)CN1CC[C@@H](CNC(=O)c2ccc(Cl)c(Cl)c2)N[C@@H](CCN)C1=O [Compound 346, N-(((3S,5S)-3-(2-aminoethyl)-1-(2-ethylbutyl)-2-oxo-1,4-diazepan-5-yl)methyl)-3,4-dichlorobenzamide] | < 1000
14 | Cc1cccc(/C=C/C(=O)NC[C@@H]2CCN(CC(c3ccccc3)c3ccccc3)C(=O)[C@H](CCCNC(=N)N)N2)c1 [Compound 191, (E)-N-(((3S,5S)-1-(2,2-diphenylethyl)-3-(3-guanidinopropyl)-2-oxo-1,4-diazepan-5-yl)methyl)-3-m-tolylacrylamide] | < 100
15 | NCCC[C@@H]1N[C@H](CNC(=O)C2CCN(c3ccccc3)C2=O)CCN(CC(c2ccccc2)c2ccccc2)C1=O (stereo partly drawn) [Compound 239, N-(((3S,5S)-3-(3-aminopropyl)-1-(2,2-diphenylethyl)-2-oxo-1,4-diazepan-5-yl)methyl)-2-oxo-1-phenylpyrrolidine-3-carboxamide] | < 10000
16 | CCCC[C@@H]1N[C@H](CNC(=O)/C=C/c2ccc(Cl)cc2)CCN(CC(c2ccccc2)c2ccccc2)C1=O [Compound 297, (E)-N-(((3S,5S)-3-butyl-1-(2,2-diphenylethyl)-2-oxo-1,4-diazepan-5-yl)methyl)-3-(4-chlorophenyl)acrylamide] | < 1000
17 | COc1ccc2cc(C(=O)NC[C@@H]3CCN(CC(c4ccccc4)c4ccccc4)C(=O)[C@H](CCCNC(=N)N)N3)ccc2c1 [Compound 158, N-(((3S,5S)-1-(2,2-diphenylethyl)-3-(3-guanidinopropyl)-2-oxo-1,4-diazepan-5-yl)methyl)-6-methoxy-2-naphthamide] | < 100
18 | O=C(NC[C@@H]1CCN(CC(c2ccccc2)c2ccccc2)C(=O)[C@H](CCCNC2CCCCC2)N1)c1ccc2ccccc2c1 [Compound 226, N-(((3S,5S)-3-(3-(cyclohexylamino)propyl)-1-(2,2-diphenylethyl)-2-oxo-1,4-diazepan-5-yl)methyl)-2-naphthamide] | < 100
19 | NC[C@@H]1N[C@H](CNC(=O)c2ccc(Cl)c(Cl)c2)CCN(Cc2cc(Cl)cc(Cl)c2)C1=O [Compound 364, N-(((3S,5S)-3-(aminomethyl)-1-(3,5-dichlorobenzyl)-2-oxo-1,4-diazepan-5-yl)methyl)-3,4-dichlorobenzamide] | < 1000
20 | N=C(N)NCCC[C@@H]1N[C@H](CNC(=O)/C=C/c2ccc(C(F)(F)F)cc2)CCN(CC(c2ccccc2)c2ccccc2)C1=O [Compound 200, (E)-N-(((3S,5S)-1-(2,2-diphenylethyl)-3-(3-guanidinopropyl)-2-oxo-1,4-diazepan-5-yl)methyl)-3-(4-(trifluoromethyl)phenyl)acrylamide] | < 100
21 | Cc1ccc(/C=C/C(=O)NC[C@@H]2CCN(CC(c3ccccc3)c3ccccc3)C(=O)[C@H](CCCNC(=N)N)N2)cc1 [Compound 171, (E)-N-(((3S,5S)-1-(2,2-diphenylethyl)-3-(3-guanidinopropyl)-2-oxo-1,4-diazepan-5-yl)methyl)-3-p-tolylacrylamide] | < 100
22 | NCCC[C@@H]1N[C@H](CNC(=O)c2ccc3ccccc3c2)CCN(CC(c2ccccc2)c2ccccc2)C1=O [Compound 63, N-(((3S,5S)-3-(3-aminopropyl)-1-(2,2-diphenylethyl)-2-oxo-1,4-diazepan-5-yl)methyl)-2-naphthamide] | < 1000
23 | NCCC[C@@H]1N[C@H](CNC(=O)c2csc(-c3ccccc3)n2)CCN(CC(c2ccccc2)c2ccccc2)C1=O [Compound 242, N-(((3S,5S)-3-(3-aminopropyl)-1-(2,2-diphenylethyl)-2-oxo-1,4-diazepan-5-yl)methyl)-2-phenylthiazole-4-carboxamide] | < 1000
24 | Cc1ccc(C(=O)NC[C@@H]2CCN(CC(c3ccccc3)c3ccccc3)C(=O)[C@H](CCCN3CCCCC3)N2)cc1C [Compound 270, N-(((3S,5S)-1-(2,2-diphenylethyl)-2-oxo-3-(3-(piperidin-1-yl)propyl)-1,4-diazepan-5-yl)methyl)-3,4-dimethylbenzamide] | < 100
25 | CCC(CN1CC[C@@H](CNC(=O)c2ccc3ccccc3c2)N[C@@H](CCN)C1=O)c1ccccc1 (mixture of isomers) [Compound 37, (3S,5S)-3-(2-aminoethyl)-5-(N-2-naphthamidomethyl)-1-(2-phenylbutyl)-1,4-diazepan-2-one] | < 100
26 | CCC(CN1CC[C@@H](CNC(=O)c2ccc(Cl)c(Cl)c2)N[C@@H](CCN)C1=O)c1ccccc1 (stereo partly drawn) [Compound 369, N-(((3S,5S)-3-(2-aminoethyl)-2-oxo-1-(2-phenylbutyl)-1,4-diazepan-5-yl)methyl)-3,4-dichlorobenzamide] | < 1000

Same assay, conditions: hMC5R binding assay as in Example 102; compounds tested as trifluoroacetate or hydrochloride salts, or as free base

Row | Compound | IC50 [nM]
27 | CC[C@H](CN1CC[C@H](CNC(=O)c2ccc3cc(Cl)ccc3c2)N[C@@H](CCN2CCCCC2)C1=O)c1ccccc1 [Compound 581, 6-chloro-N-(((3S,5R)-2-oxo-1-((S)-2-phenylbutyl)-3-(2-(piperidin-1-yl)ethyl)-1,4-diazepan-5-yl)methyl)-2-naphthamide] | < 100
28 | CC[C@H](CN1CC[C@H](CNC(=O)c2ccc3cc(Cl)ccc3c2)N[C@H](CCN2CCCCC2)C1=O)c1ccccc1 [Compound 585, 6-chloro-N-(((3R,5R)-2-oxo-1-((S)-2-phenylbutyl)-3-(2-(piperidin-1-yl)ethyl)-1,4-diazepan-5-yl)methyl)-2-naphthamide] | < 10000
